Values joined by “and” are separate entries in the source; they are usually repeats but may differ in a detail not shown here. Identical values can stand only once. Marks after values point to notes of the source that are not given here.
What was measured:
mongrel male mice = assay: Average lifetime of mice in a closed volume (hypoxia); format: in vivo
Experimental: The tests of determining average lifetime of animals in a closed volume and on the model of acute hypobaric hypoxia at the minimum atmospheric rarefaction (170-185 mm Hg) were used to study antihypoxic activity of the compunds of general formula (I).
Mice were one by one placed into sealed glass jars and their lifetime was recorded.
The experiment was carried out on 90 mongrel male mice having initial body mass 20 ± 0,5 g housed in cages by 10 animals and given a standard vivarium ration. Average lifetime of mice in closed vessels having volume 250 ml was preliminarily determined and it was 22 to 25 minutes. All the groups included 10 animals each.
Experimental protocol: • a) - preliminary hypoxia for 12 minutes; • b) - first administration of a compound immediately following preliminary hypoxia; • c) - second administration of a compound in 24 hours after the first one, then daily for three days; • d) - recording lifetime of animals under hypoxic conditions in a sealed space 2 hours after the last administration of a compound.
The test compounds were dissolved in distilled water and orally administered to animals for 5 days.
Experimental groups: • Group 1 -(control) - without preliminary hipoxia with oral administration of distilled water for 5 days; • Groups 2 and 3 - administration of the compound XLIV using two doses 50 and 500 µg respectively; • Group 4 - oral administration of sodium oxybutyrate at a dose […] 2 hours before hypoxia; • Group 5 -(control)- with preliminary hypoxia for 12 minutes with subsequent administration of distilled water for 5 days; • Groups 6 and 7 - administration of the compound XLIV using two doses 50 and 500 µg respectively; • Groups 8 and 9 - administration of the compound III using two doses 50 and 500 µg respectively.

[1] = test system: hepatic P-450 cytochrome system; assay: Hexenal sleep duration in mice; format: in vivo
How it was run: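 Male mice (several inbred/hybrid lines, 18-20 g, n=10) and mongrel male guinea pigs (250-300 g, n=24) given compounds orally in drinking water for three days at 50 and 500 µg/kg. Hexenal given 24 h after last dose ([…]); sleep duration recorded in minutes.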

Wistar male rats = assay: Blood glucose level in intact rats; format: in vivo; conditions: for Blood glucose level (mg/dl) 2 hours after / Blood glucose level (mg/dl) 5 hours after: deprived of food; for Blood glucose level (mg/dl) 2 hours before: intragastral four days
Experimental: Experiments were carried out on Wistar male rats weighing 250-300 g. Experimental diabetes was induced with single intravenous injection of streptozotocine (the Synthez cooperative enterprise at the IMBG of the Academy of Sciences of Ukraine) at a dose 42 mg/kg to rats which were preliminarily fasting for 24 hours with access to food immediately following injection. Rats were selected for experiment 2 weeks after diabetes induction with glycemia 120-180 mg/dl. Each group included 12 animals.
The compounds were intragastrally administered to intact animals and to rats with streptozotocine diabetes for four days at daily doses 50 µg/kg and 500 µg/kg in water solution at a rate of 1 ml per 200 g of body mass. Intact animals were given the compounds III and XLIV, and rats with induced diabetes were given the compound XLIV. Check blood glucose level determination was done at the day of experiment, then animals were administered the test compounds and were deprived of food. The control animals received a respective water volume. Effect was estimated by change in blood glucose level in 2 and 5 hours. Then animals received forage and 24 hours after the last drug administration blood was again sampled for examination. 0.1 ml of blood were collected from the tail vein. Glucose level was determined using the o-toluidine method.
Glucose level was calculated in mg/dl using standard glucose solutions. Then the degree of change in glucose level in relation to the initial level was determined for each animal with its expression in percent from the initial level. Final calculation was performed for each group of animals. Each group included 10 animals.

Human lymphocytes = assay: Concanavalin A-induced blasttransformation of lymphocytes; format: cell-based
Experimental: Human lymphocytes were used for blasttransformation reaction [Kiseleva E.P., Tsveibakh A.S., Goldman E.I., Pigareva N.V. Application of a micromethod to study blasttransformation of lymphocytes in humans and animals. Immunology (1985), No 1, pp. 76-78]. 10 ml blood were collected into a sterile syringe containing heparine (to final concentration 25 U/ml) and incubated to sediment red blood cells (60-90 minutes at 37°C). Leukocytic suspension layer was selected and the number of nucleated cells was calculated. The cells obtained in such a way were incubated for 72 hours in a humid atmosphere with 5% CO2 at 37°C in the cells of plates for immune reactions in RPMI-1640 medium comprising 15% fetal calf serum, […] Neomycine (incubation mixture volume 0.15 ml). 5 x 10^5 cells were introduced into each plate cell. Incubation was carried out in the presence or absence of mitogen phytohemagglutinin (PHA) (Sigma) […] or concanavalin A (ConA) (Sigma) […] with or without addition of the test compounds at different concentrations. […] H^3 -thymidine in RPMI-1640 medium were introduced into each cell 16 hours before incubation termination. Following culturing period termination, 0.15 ml cellular suspension from each plate cell were transferred on the FN-8 paper filters. Filters were dried, washed two times with normal saline for 5 minutes then twice with TCA for 60 minutes. After drying, radioactivity of samples was calculated on a counter in the ZhS-8 scintillator. Stimulation index was calculated as ratio of sample radioactivity with mitogen to sample radioactivity without mitogen.

[2] = with preliminary hypoxia 12 minutes, oral 5 days, 0,05 mg/kg
[3] = with preliminary hypoxia 12 minutes, oral 5 days, 0,50 mg/kg

Molecule	Lifetime (seconds) (mongrel male mice; [2])	Lifetime (seconds) (mongrel male mice; [3])	Blood glucose level (mg/dl) 24 hours after (Wistar male rats; 50 µg/kg)	Blood glucose level (mg/dl) 24 hours after (Wistar male rats; 500 µg/kg)	Blood glucose level (mg/dl) 2 hours after (Wistar male rats; 50 µg/kg)	Blood glucose level (mg/dl) 5 hours after (Wistar male rats; 50 µg/kg)	Blood glucose level (mg/dl) 2 hours after (Wistar male rats; 500 µg/kg)	Blood glucose level (mg/dl) 5 hours after (Wistar male rats; 500 µg/kg)	Blood glucose level (mg/dl) 2 hours before (Wistar male rats; 50 µg/kg)	Blood glucose level (mg/dl) 2 hours before (Wistar male rats; 500 µg/kg)	blasttranformation reaction of human lymphocytes induced by ConA (Human lymphocytes)	Radioactivity, number of pulses for 20 seconds (Human lymphocytes; 10^-3 M/l, +ConA)	Stimulation index (Human lymphocytes; 10^-3 M/l, +ConA)	Radioactivity, number of pulses for 20 seconds (Human lymphocytes; 10^-3 M/l, no mitogen)	Radioactivity, number of pulses for 20 seconds (Human lymphocytes; 10^-4 M/l, +ConA)	Stimulation index (Human lymphocytes; 10^-4 M/l, +ConA)	Radioactivity, number of pulses for 20 seconds (Human lymphocytes; 10^-4 M/l, no mitogen)	Radioactivity, number of pulses for 20 seconds (Human lymphocytes; 10^-5 M/l, +ConA)	Stimulation index (Human lymphocytes; 10^-5 M/l, +ConA)	Radioactivity, number of pulses for 20 seconds (Human lymphocytes; 10^-5 M/l, no mitogen)	further results
O=C(O)CCCC(=O)NCCc1c[nH]cn1 [compound III, N-GLUTARYLHISTAMINE]	1670,6±25,3*^5 seconds	1532,6±96,0 seconds	66.5 ± 3.3 mg/dL	73.1 ± 3.4 mg/dL	58.5 ± 5.9 mg/dL	70.8 ± 5.5 mg/dL	69.9 ± 2.8*^2 mg/dl	72.6 ± 1.5*^2 mg/dl	84.2 ± 6.1 mg/dL	71.3 ± 4.0 mg/dL	stimulating effect	680 ± 82 number of pulses for 20 seconds	2.06	330 ± 105 number of pulses for 20 seconds	1197±97 number of pulses for 20 seconds	4.37	274 ± 28 number of pulses for 20 seconds	1562 ± 134 number of pulses for 20 seconds	3.34	467 ± 109 number of pulses for 20 seconds	Hexenal sleep duration (minutes) ([1]; CBF1 mice, oral 3 days, 50 µg/kg, control 25.91 ± 1.57): 19.61 ± 2.69** minutes; Hexenal sleep duration (minutes) ([1]; CBF1 mice, oral 3 days, 500 µg/kg, control 25.91 ± 1.57): 22.02 ± 1.45 * minutes; Radioactivity, number of pulses for 20 seconds (Human lymphocytes; 10^-6 M/l, +ConA): 1922 ± 248 number of pulses for 20 seconds; Stimulation index (Human lymphocytes; 10^-6 M/l, +ConA): 4.71; Radioactivity, number of pulses for 20 seconds (Human lymphocytes; 10^-6 M/l, no mitogen): 408 ± 75 number of pulses for 20 seconds; Radioactivity, number of pulses for 20 seconds (Human lymphocytes; 10^-7 M/l, +ConA): 1483 ± 67 number of pulses for 20 seconds; Stimulation index (Human lymphocytes; 10^-7 M/l, +ConA): 3.10; Radioactivity, number of pulses for 20 seconds (Human lymphocytes; 10^-7 M/l, no mitogen): 478 ± 35 number of pulses for 20 seconds; Radioactivity, number of pulses for 20 seconds (Human lymphocytes; 10^-8 M/l, +ConA): 849 ± 133 number of pulses for 20 seconds; Stimulation index (Human lymphocytes; 10^-8 M/l, +ConA): 3.63; Radioactivity, number of pulses for 20 seconds (Human lymphocytes; 10^-8 M/l, no mitogen): 234 ± 36 number of pulses for 20 seconds
γ-L-glutamylhistamine [compound XLIV]	1415,5±47,2 seconds	1844,8±93,2*^5 seconds	79.9 ± 5.2 mg/dL	83.7 ± 4.0 mg/dL	60.8 ± 4.0 mg/dL	64.0 ± 3.1 mg/dL	64.8 ± 4.2 mg/dL	65.9 ± 3.9 mg/dL	81.2 ± 3.8 mg/dL	80.8 ± 2.7 mg/dL	stimulating effect	1072 ± 135 number of pulses for 20 seconds	3.01	356±51 number of pulses for 20 seconds	1259 ± 90 number of pulses for 20 seconds	3.91	322 ± 38 number of pulses for 20 seconds	1695 ± 139 number of pulses for 20 seconds	5.00	339 ± 32 number of pulses for 20 seconds	Lifetime (seconds) (mongrel male mice; without preliminary hypoxia, oral 5 days, 0,05 mg/kg): 2110,6±123,6**^1 seconds; Lifetime (seconds) (mongrel male mice; without preliminary hypoxia, oral 5 days, 0,50 mg/kg): 1742,8±68,1*^1 seconds; Hexenal sleep duration ([1]; BALB/c*h75 mice, oral 3 days, 50 µg/kg, control 29.16 ± 5.68): 26.50 ± 3.49 min; Hexenal sleep duration (minutes) ([1]; BALB/c*h75 mice, oral 3 days, 500 µg/kg, control 29.16 ± 5.68): 16.72 ± 1.27*** minutes; Hexenal sleep duration (minutes) ([1]; BDF1 mice, oral 3 days, 500 µg/kg, control 23.78 ± 0.78): 20.33 ± 0.59* minutes; Hexenal sleep duration (minutes) ([1]; mouse, in vivo, po): 17.98 ± 1.66* minutes and 16.13 ± 1.86** minutes; Radioactivity, number of pulses for 20 seconds (Human lymphocytes; 10^-6 M/l, +ConA): 1963 ± 205 number of pulses for 20 seconds; Stimulation index (Human lymphocytes; 10^-6 M/l, +ConA): 6.96; Radioactivity, number of pulses for 20 seconds (Human lymphocytes; 10^-6 M/l, no mitogen): 289 ± 52 number of pulses for 20 seconds; Radioactivity, number of pulses for 20 seconds (Human lymphocytes; 10^-7 M/l, +ConA): 1786 ± 241 number of pulses for 20 seconds; Stimulation index (Human lymphocytes; 10^-7 M/l, +ConA): 7.38; Radioactivity, number of pulses for 20 seconds (Human lymphocytes; 10^-7 M/l, no mitogen): 242 ± 19 number of pulses for 20 seconds; Radioactivity, number of pulses for 20 seconds (Human lymphocytes; 10^-8 M/l, +ConA): 971 ± 44 number of pulses for 20 seconds; Stimulation index (Human lymphocytes; 10^-8 M/l, +ConA): 4.17; Radioactivity, number of pulses for 20 seconds (Human lymphocytes; 10^-8 M/l, no mitogen): 233 ± 54 number of pulses for 20 seconds

— patent publication EP2229935A1, “Peptide derivatives or pharmaceutically acceptable salts thereof, method for producing the same, use of said derivatives and pharmaceutical composition” (Nebolsin, Vladimir Evgenievich, priority 1997, dated 1999)
